Data on 33 molecules can be found in ChEMBL document CHEMBL1143401, “New small-molecule synthetic antimycobacterials” (Antimicrob Agents Chemother, 2005).

The test system of series [1] is Mycobacterium tuberculosis. Nature of the series: Antimycobacterial activity against Mycobacterium tuberculosis. Format: functional.
In series [2] the test system is Mycobacterium tuberculosis. Nature of the series: Antimycobacterial activity against Mycobacterium tuberculosis H37Rv. The series is classed as functional.
Series [3] has as its target T1, Enoyl-[acyl-carrier-protein] reductase [NADH] (Mycobacterium tuberculosis) (UniProt P9WGR1).
T1 sequence (whole entry): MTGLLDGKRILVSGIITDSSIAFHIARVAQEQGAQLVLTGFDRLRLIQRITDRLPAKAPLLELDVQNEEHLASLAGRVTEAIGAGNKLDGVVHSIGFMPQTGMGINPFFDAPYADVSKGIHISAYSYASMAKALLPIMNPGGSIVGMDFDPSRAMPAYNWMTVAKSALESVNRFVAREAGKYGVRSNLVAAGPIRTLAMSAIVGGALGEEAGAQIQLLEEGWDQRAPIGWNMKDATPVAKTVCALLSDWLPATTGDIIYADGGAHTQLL
In words: Inhibition of Mycobacterium tuberculosis InhA at 40 uM.

The nature of series [4]: Selectivity index, ratio of MIC for Mycobacterium tuberculosis to cytotoxicity to african green monkey Vero cells. The series is classed as functional.
The target in series [5] is T2, Cell division protein FtsZ (Mycobacterium tuberculosis) (UniProt P9WN95).
T2 sequence (whole entry): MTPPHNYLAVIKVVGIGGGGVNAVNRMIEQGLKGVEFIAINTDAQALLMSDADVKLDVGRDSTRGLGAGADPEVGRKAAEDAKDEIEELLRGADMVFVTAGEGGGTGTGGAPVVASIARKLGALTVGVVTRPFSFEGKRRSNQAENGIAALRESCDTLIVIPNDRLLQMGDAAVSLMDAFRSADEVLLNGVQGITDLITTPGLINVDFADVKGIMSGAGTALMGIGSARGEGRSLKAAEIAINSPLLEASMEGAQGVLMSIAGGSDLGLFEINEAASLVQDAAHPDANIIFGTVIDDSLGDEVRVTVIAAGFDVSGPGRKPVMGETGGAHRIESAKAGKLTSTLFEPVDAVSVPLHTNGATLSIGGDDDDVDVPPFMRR
Nature of the series: Inhibition of Mycobacterium tuberculosis FtsZ.

Series [6] can be described thus: Selectivity index, ratio of MIC for Mycobacterium tuberculosis to cytotoxicity to […] V79 cells. Format: functional.
For series [7], the system named is Mycobacterium tuberculosis. Nature of the series: Antimycobacterial activity against Mycobacterium tuberculosis H37Ra. The series is classed as functional.
Series [8] in a line: Toxicity assessed as haemolysis in RBC. The series is classed as cell-based, Erythrocyte. Conditions: red blood cells (RBC); read-out: LD50 (the source's name).

Structures are written as SMILES. Values after ≈ are worked out from the molar mass of the structure shown.

What is called MIC is the lowest concentration that inhibits growth of the organism. For `CC(C)c1ccc(-c2c(N)nnc3c2c2ccccc2n3C)cc1`, the minimal inhibitory concentration (MIC) in series [1] stood at 1.42 µg/mL (≈ 4.49 µM).
Regarding `S=c1oc2c(Cl)cc(Cl)cc2c(=S)n1-c1cccc(Cl)c1`, in series [1], the lowest concentration to inhibit growth (MIC) was 4 µg/mL (≈ 10.7 µM).
By inhibition is commonly meant how much of the control response was suppressed. Turning to `O=[N+]([O-])c1ccc(-c2cnn(-c3nccc(C(F)(F)F)n3)c2)c([N+](=O)[O-])c1`, the MIC in series [1] and in series [2] was 2.5 µg/mL (≈ 6.57 µM) each time. Further, the inhibition in series [3] was 91%.
In series [1], `CCCCCCCCCCNC[C@H]1O[C@H](O[C@H]2O[C@H](CNCCCCCCCCCC)[C@@H](O)[C@H](O)[C@H]2O)[C@H](O)[C@@H](O)[C@@H]1O` yielded a minimum inhibitory concentration (MIC) of 1.3 µg/mL (≈ 2.09 µM).
For the molecule `CC(=O)NC[C@H]1CN(c2ccc(N3CCSCC3)c(F)c2)C(=O)O1` [SUTEZOLID], the minimal inhibitory concentration (MIC) in series [1] is ≤ 0.125 µg/mL.
Same read-out and setting: as for `COC(=O)c1ccccc1S(=O)(=O)NC(=O)Nc1nc(C)cc(C)n1` [SULFOMETURON METHYL], the figure is 0.3 µg/mL (≈ 0.823 µM); as for `CC1(C)O[C@H]2OC(COCC(O)CNCCCCCCCCCCCCNCC(O)COCC3O[C@@H]4OC(C)(C)O[C@@H]4[C@H]4OC(C)(C)O[C@@H]34)[C@@H]3OC(C)(C)O[C@@H]3[C@H]2O1` (stereo partly drawn), 1.56 µg/mL (≈ 1.87 µM).
On the same count and under the same terms, as for `CCCCCCCCCCS(=O)(=O)CC(N)=O`, the figure is 0.75 µg/mL (≈ 2.85 µM).
On the same count and under the same terms, the value for `CCCCCCCCCCCCCCCCN[C@H](CC(=O)OCC)[C@@H]1O[C@@H]2OC(C)(C)O[C@@H]2C1OC` (stereo partly drawn) was 3.12 µg/mL (≈ 6.07 µM).
`Clc1nc(C2CCCO2)c2ncn(Cc3ccccc3)c2n1` (stereo not drawn): the “Selectivity Index” value in series [4] is 10.6. In addition, the MIC in series [1] worked out at 0.78 µg/mL (≈ 2.48 µM).
`c1ccc(-c2ccc(CNc3ccc(CN4CCSCC4)cc3)cc2)cc1` came in with an MIC in series [1] of 0.5 µg/mL (≈ 1.33 µM).
The molecule `Cc1ccc2nc(SCc3cc([N+](=O)[O-])cc([N+](=O)[O-])c3)[nH]c2c1` gave an MIC in series [1] of 1.3 µg/mL (≈ 3.78 µM).
Still for that read-out and setting: the value for `OC12CCCC(C1)SC(c1ccccc1)=N2` (stereo not drawn) was ≤ 6.25 µg/mL.
`CCOC(=O)Nc1cc(NCCCCN(CC)CC)c2nc(-c3ccccc3)c(-c3ccccc3)nc2n1` gave an MIC in series [1] of 0.15 µg/mL (≈ 0.293 µM). The molecule further gave an ID50 in series [5] of 52 µM.
The molecule `CN(C)S(=O)(=O)n1cnc2c(=S)[nH]cnc21` showed an MIC in series [1] of 0.78 µg/mL (≈ 3.01 µM).
`COc1ccc(C(=O)Nc2ccc(C(=O)NN3C(=O)CSC3c3ccc(F)cc3)cc2)cc1` (stereo not drawn) had a minimum inhibitory concentration (MIC) in series [1] of 6.25 µg/mL (≈ 13.4 µM).
Still for that read-out and setting: as for `N#Cc1c(N2CCN(c3ccc([N+](=O)[O-])cc3)CC2)[n+]([O-])c2ccccc2[n+]1[O-]`, the figure is 0.1 µg/mL (≈ 0.255 µM); as for `CC(=O)NCCCC[C@H](OC(C)=O)[C@@H](COC(C)=O)OC(C)=O`, ≤ 6.25 µg/mL; as for `O=C(Nc1ncccc1[N+](=O)[O-])c1c(O)cccc1Cl`, < 1 µg/mL.
Take `COc1nc2ccc(Br)cc2cc1[C@@H](c1ccccc1)[C@@](O)(CCN(C)C)c1cccc2ccccc12` [BEDAQUILINE]: in series [1], inhibition of growth (MIC) required 0.03 µg/mL (≈ 0.054 µM).
In series [1], `CCCCOc1ccc2nc(C)cc(N/N=C/c3cccc4c(OC)cccc34)c2c1` displayed an MIC of 0.78 µg/mL (≈ 1.89 µM).
On the same count and under the same terms, the value for `CCCSc1nc(Cl)c(C#N)c(-c2ccc(F)cc2)n1` was 0.78 µg/mL (≈ 2.53 µM).
`CC1Nc2nc(NC(=O)Oc3ccccc3)cc(N)c2N=C1c1ccccc1` (stereo not drawn) returned an MIC in series [1] of 1.3 µg/mL (≈ 3.48 µM).
Same read-out and setting: the value for `CCCCCCCCCCCCCCCCOCCCCOP(=O)(O)C[C@@H]1O[C@H](CO)[C@@H](O)[C@@H]1O` was 3.13 µg/mL (≈ 5.97 µM); that for `NS#Cc1cc(SCc2ccccc2F)ccn1` was 1.2 µg/mL (≈ 4.31 µM).
Take `Cc1c(CN2CCN(C)CC2)cc(-c2ccc(Cl)cc2)n1-c1ccc(Cl)cc1`: in series [4], the “Selectivity Index” value is reported as 5.6. For the same molecule, it took 0.7 µg/mL (≈ 1.69 µM) to inhibit growth in series [1] (MIC).
`CN(C)C/C=C(\c1ccc(Br)cc1)c1ccc(-c2ccccc2)cc1`: in series [6], the “Selectivity Index” value is listed as <2. The MIC in series [7], in series [1] and in series [2] was 1.6 µg/mL (≈ 4.08 µM) each time.
In turn, `O=[N+]([O-])c1cn2c(n1)OC[C@@H](OCc1ccc(OC(F)(F)F)cc1)C2` [PRETOMANID] displayed an MIC in series [1] of 0.13 µg/mL (≈ 0.362 µM).
In turn, `CC(=O)/C(=C/C=C/[C@@H](OCc1ccccc1)[C@H](COCc1ccccc1)OCc1ccccc1)CCl` yielded an MIC in series [1] of 3.1 µg/mL (≈ 6.14 µM).
In series [1], `O=C(COc1cnccn1)N/N=c1\scc(-c2ccc(Br)cc2)n1-c1ccc(Cl)cc1[N+](=O)[O-]` returned an MIC of 0.3 µg/mL (≈ 0.534 µM). Moreover, in series [8], the HC50 is > 500 µg/mL.
With `O=[N+]([O-])c1c[nH]cc1-c1ccc(Cl)cc1Cl`, the MIC in series [1] was 1 µg/mL (≈ 3.89 µM).
Take `c1ccc(-c2ccc(CNc3cccc(-c4c[nH]cn4)c3)cc2)cc1`: in series [4], the “Selectivity Index” value is 16. In addition, the MIC in series [1] came out at 4 µg/mL (≈ 12.3 µM).
`[H][C@@]12CC[C@H](C(C)CCC(N)=O)[C@@]1(C)CC[C@]1([H])[C@@]3(C)CC[C@]4(C[C@@]3([H])C[C@@H](OC(C)=O)[C@@]21[H])OOC1(CC[C@@H](C)CC1)OO4` (stereo partly drawn): in series [1], the MIC stood at 3.12 µg/mL (≈ 5.42 µM).
